Values joined by “and” are separate entries in the source; they are usually repeats but may differ in a detail not shown here. Identical values can stand only once.
Legend:
Assay in all cases: CellTiter-Glo 2.0 cell viability, 7x7 combination dose response matrix, synergy scoring
Type in all cases: cell-based
MDA-MB-231 cell line = tested on: MDA-MB-231 cell line
EBC-1 cell line = tested on: EBC-1 cell line
MCF7 cell line = tested on: MCF7 cell line
[1] = MDA-MB-231, combined with Alpelisib 41-10000 nM, first compound 0.41-100 nM
[2] = MDA-MB-231, combined with Capivasertib 41-10000 nM, first compound 0.41-100 nM
[3] = MDA-MB-231, combined with Everolimus 41-10000 nM, first compound 0.41-100 nM
[4] = MDA-MB-231, combined with GNE-477 41-10000 nM, first compound 0.41-100 nM
[5] = MDA-MB-231, combined with KU-0063794 41-10000 nM, first compound 0.41-100 nM
[6] = EBC-1, combined with Alpelisib 21-10000 nM, first compound 0.21-100 nM
[7] = EBC-1, combined with Capivasertib 21-10000 nM, first compound 0.21-100 nM
[8] = EBC-1, combined with Everolimus 2.1-1000 nM, first compound 0.21-100 nM
[9] = EBC-1, combined with GNE-477 21-10000 nM, first compound 0.21-100 nM
[10] = EBC-1, combined with KU-0063794 21-10000 nM, first compound 0.21-100 nM
[11] = EBC-1, combined with M2698 21-10000 nM, first compound 0.21-100 nM
[12] = MCF7, combined with Alpelisib 41-10000 nM, first compound 0.41-33.33 nM
[13] = MCF7, combined with Capivasertib 41-10000 nM, first compound 0.41-100 nM
[14] = MCF7, combined with Everolimus 41-10000 nM, first compound 0.41-100 nM
[15] = MCF7, combined with GNE-477 41-10000 nM, first compound 0.41-100 nM
[16] = MCF7, combined with HS173 41-10000 nM, first compound 0.41-100 nM
[17] = MCF7, combined with KU-0063794 41-10000 nM, first compound 0.41-100 nM
[18] = MCF7, combined with M2698 41-10000 nM, first compound 0.41-100 nM
[19] = MCF7, combined with Serabelisib 41-10000 nM, first compound 0.41-100 nM
[20] = MDA-MB-231, combined with Alpelisib 41-10000 nM, first compound 4.1-1000 nM
[21] = MDA-MB-231, combined with Capivasertib 41-10000 nM, first compound 4.1-1000 nM
[22] = MDA-MB-231, combined with Everolimus 41-10000 nM, first compound 4.1-1000 nM
[23] = MDA-MB-231, combined with GNE-477 41-10000 nM, first compound 4.1-1000 nM
[24] = MDA-MB-231, combined with KU-0063794 41-10000 nM, first compound 4.1-1000 nM
[25] = MDA-MB-231, combined with M2698 41-10000 nM, first compound 4.1-1000 nM
[26] = EBC-1, combined with GNE-477 21-10000 nM, first compound 1.05-500 nM
[27] = EBC-1, combined with KU-0063794 21-10000 nM, first compound 1.05-500 nM
[28] = EBC-1, combined with M2698 21-10000 nM, first compound 1.05-500 nM
[29] = MCF7, combined with Alpelisib 41-10000 nM, first compound 4.1-1000 nM
[30] = MCF7, combined with Capivasertib 41-10000 nM, first compound 4.1-1000 nM
[31] = MCF7, combined with Everolimus 41-10000 nM, first compound 4.1-1000 nM
[32] = MCF7, combined with GNE-477 41-10000 nM, first compound 4.1-1000 nM
[33] = MCF7, combined with KU-0063794 41-10000 nM, first compound 4.1-1000 nM
[34] = MCF7, combined with M2698 41-10000 nM, first compound 4.1-1000 nM

Cc1ccc(NC(=O)OCc2ccc3c(c2)C(=O)N(C2CCC(=O)NC2=O)C3)cc1Cl (stereo not shown) [Compound 1-6, [2-(2,6-dioxopiperidin-3-yl)-3-oxo-2,3-dihydro-1H-isoindol-5-yl]methyl N-(3-chloro-4-methylphenyl)carbamate]
Mean Bliss synergy score (MDA-MB-231 cell line; [1]): 1.80
Mean Loewe synergy score (MDA-MB-231 cell line; [1]): 5.93
Mean Bliss synergy score (MDA-MB-231 cell line; [2]): 5.75
Mean Loewe synergy score (MDA-MB-231 cell line; [2]): 7.02
Mean Bliss synergy score (MDA-MB-231 cell line; [3]): 8.98
Mean Loewe synergy score (MDA-MB-231 cell line; [3]): 11.33
Mean Bliss synergy score (MDA-MB-231 cell line; [4]): 2.23
Mean Loewe synergy score (MDA-MB-231 cell line; [4]): 5.29
Mean Bliss synergy score (MDA-MB-231 cell line; [5]): 3.19
Mean Loewe synergy score (MDA-MB-231 cell line; [5]): 6.78
Mean Loewe synergy score (MDA-MB-231 cell line; MDA-MB-231, combined with M2698 41-10000 nM, first compound 0.41-100 nM): 4.77 and 5.02
Mean Bliss synergy score (MDA-MB-231 cell line; combined with Everolimus (41 nM to 10 uM), MDA-MB-231 cell line, mean across dose response matrix, 72 hrs): 8.98
Mean Bliss synergy score (EBC-1 cell line; [6]): 17.01
Mean Loewe synergy score (EBC-1 cell line; [6]): 3.84
Mean Bliss synergy score (EBC-1 cell line; [7]): 16.12
Mean Loewe synergy score (EBC-1 cell line; [7]): 6.11
Mean Bliss synergy score (EBC-1 cell line; [8]): 7.12
Mean Loewe synergy score (EBC-1 cell line; [8]): 8.08
Mean Bliss synergy score (EBC-1 cell line; [9]): 10.24
Mean Loewe synergy score (EBC-1 cell line; [9]): 2.07
Mean Bliss synergy score (EBC-1 cell line; [10]): 8.70
Mean Loewe synergy score (EBC-1 cell line; [10]): 4.67
Mean Bliss synergy score (EBC-1 cell line; [11]): 8.18
Mean Loewe synergy score (EBC-1 cell line; [11]): 8.00
Mean Loewe synergy score (EBC-1 cell line; combined with Everolimus (2.1 nM to 1 uM), EBC-1 cell line, mean across dose response matrix, 72 hrs): 8.08
Mean Bliss synergy score (MCF7 cell line; [12]): 3.23
Mean Loewe synergy score (MCF7 cell line; [12]): 9.38
Mean Loewe synergy score (MCF7 cell line; MCF7, combined with Alpelisib 41-10000 nM, first compound 0.41-100 nM): 10.18 and 8.52
Mean Bliss synergy score (MCF7 cell line; [13]): 14.01 and 11.86
Mean Loewe synergy score (MCF7 cell line; [13]): 12.75 and 11.61
Mean Bliss synergy score (MCF7 cell line; [14]): 10.05
Mean Loewe synergy score (MCF7 cell line; [14]): 17.80
Mean Bliss synergy score (MCF7 cell line; [15]): 0.14
Mean Loewe synergy score (MCF7 cell line; [15]): 6.12
Mean Bliss synergy score (MCF7 cell line; [16]): 0.74
Mean Loewe synergy score (MCF7 cell line; [16]): 3.72
Mean Bliss synergy score (MCF7 cell line; [17]): 5.02
Mean Loewe synergy score (MCF7 cell line; [17]): 9.44
Mean Bliss synergy score (MCF7 cell line; [18]): 2.92 and 3.60
Mean Loewe synergy score (MCF7 cell line; [18]): 10.25 and 9.07
Mean Bliss synergy score (MCF7 cell line; [19]): 4.69
Mean Loewe synergy score (MCF7 cell line; [19]): 4.49
Mean Loewe synergy score (MCF7 cell line; combined with Capivasertib, MCF7 cell line (printed in Example 5, lung cancer cell lines), mean across dose response matrix, 72 hrs): 16.02
Mean Loewe synergy score (MCF7 cell line; combined with KU-0063794 (41 nM to 10 uM), MCF7 cell line, mean across dose response matrix, 72 hrs): 9.44

O=C1CCC(N2Cc3ccc(COC(=O)Nc4cc(OC(F)(F)F)ccc4F)cc3C2=O)C(=O)N1 (stereo not shown) [Compound 1-1, [2-(2,6-dioxopiperidin-3-yl)-3-oxo-2,3-dihydro-1H-isoindol-5-yl]methyl N-[2-fluoro-5-(trifluoromethoxy)phenyl]carbamate]
Mean Bliss synergy score (MDA-MB-231 cell line; [20]): −0.82
Mean Loewe synergy score (MDA-MB-231 cell line; [20]): 5.41
Mean Bliss synergy score (MDA-MB-231 cell line; [21]): 6.44
Mean Loewe synergy score (MDA-MB-231 cell line; [21]): 8.02
Mean Bliss synergy score (MDA-MB-231 cell line; [22]): 12.28
Mean Loewe synergy score (MDA-MB-231 cell line; [22]): 15.50
Mean Bliss synergy score (MDA-MB-231 cell line; [23]): 4.62
Mean Loewe synergy score (MDA-MB-231 cell line; [23]): 12.93
Mean Bliss synergy score (MDA-MB-231 cell line; [24]): 4.80
Mean Loewe synergy score (MDA-MB-231 cell line; [24]): 9.37
Mean Bliss synergy score (MDA-MB-231 cell line; [25]): 3.71
Mean Loewe synergy score (MDA-MB-231 cell line; [25]): 11.94
Mean Bliss synergy score (MDA-MB-231 cell line; combined with M2698, MDA-MB-231 cell line, mean across dose response matrix, 72 hrs): 4.89
Mean Bliss synergy score (EBC-1 cell line; [26]): 12.03
Mean Loewe synergy score (EBC-1 cell line; [26]): 1.96
Mean Bliss synergy score (EBC-1 cell line; [27]): 13.27
Mean Loewe synergy score (EBC-1 cell line; [27]): −6.72
Mean Bliss synergy score (EBC-1 cell line; [28]): 10.48
Mean Loewe synergy score (EBC-1 cell line; [28]): 8.11
Mean Bliss synergy score (EBC-1 cell line; combined with GNE-477 (21 nM to 10 uM), EBC-1 cell line, mean across dose response matrix, 72 hrs): 12.03
Mean Bliss synergy score (MCF7 cell line; [29]): 1.44
Mean Loewe synergy score (MCF7 cell line; [29]): 6.88
Mean Bliss synergy score (MCF7 cell line; [30]): 1.60
Mean Loewe synergy score (MCF7 cell line; [30]): 11.02
Mean Bliss synergy score (MCF7 cell line; [31]): 6.39
Mean Loewe synergy score (MCF7 cell line; [31]): 17.49
Mean Bliss synergy score (MCF7 cell line; [32]): 8.82
Mean Loewe synergy score (MCF7 cell line; [32]): 12.53
Mean Bliss synergy score (MCF7 cell line; [33]): 9.78
Mean Loewe synergy score (MCF7 cell line; [33]): 14.51
Mean Bliss synergy score (MCF7 cell line; [34]): 8.47
Mean Loewe synergy score (MCF7 cell line; [34]): 15.52
